This is an account of results in PMC4059138, “Structural Basis for Multiple Sugar Recognition of Jacalin-related Human ZG16p Lectin*^([image sbox.jpg])” (The Journal of Biological Chemistry, 2014).

Broadly, the Kd is the constant that tells how readily two partners part at equilibrium.

Where two headings read alike, the source gives them in different places. No end group written: not given here. *: point of attachment. αMan = OC[C@H]1O[C@H](*)[C@@H](O)[C@@H](O)[C@@H]1O

Experiment [1] concerns the target T1, 15N-labeled human ZG16p(21–167) (Homo sapiens, UniProt O60844).
T1 construct: gene ZG16; residues 21-167 (signal peptide removed), 15N-labelled, E. coli pCold-PDI vector, tag removed as for the other construct; the purification says 21-159 for the same labelled protein; monomer
T1 sequence (O60844 21-167): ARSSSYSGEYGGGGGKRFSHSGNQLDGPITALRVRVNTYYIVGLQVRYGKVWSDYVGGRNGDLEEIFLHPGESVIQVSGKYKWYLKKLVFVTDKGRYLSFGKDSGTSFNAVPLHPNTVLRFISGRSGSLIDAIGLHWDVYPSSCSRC
The experiment in a line: 1H-15N HSQC NMR titration. In kind it is binding. An excerpt:
1H-15N HSQC NMR titration on 15N-labeled human ZG16p(21–167)

In experiment [2] the target is T2, human ZG16p(21–159) (Homo sapiens, UniProt O60844).
T2 construct: gene ZG16; residues 21-159, expressed in E. coli as (His)6-MBP fusion, tag removed by TEV protease; monomer
T2 sequence (O60844 21-159): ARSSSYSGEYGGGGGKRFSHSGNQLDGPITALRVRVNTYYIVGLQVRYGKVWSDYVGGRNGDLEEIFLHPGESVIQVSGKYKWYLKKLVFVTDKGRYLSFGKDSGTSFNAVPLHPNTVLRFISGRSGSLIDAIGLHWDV
The experiment in a line: X-ray crystallography, soaking, […] Å. As to conditions: pH 6.5; mannose-binding pocket.

The target of experiment [3] is T2, human ZG16p(21–159). Nature of the experiment: X-ray crystallography, soaking, […] Å. As to conditions: pH 6.5; mannose-binding pocket. The source holds these as a separate data set.
Experiment [4] addresses T3, Human ZG16p(21–167), 15N-labeled (human, UniProt O60844 21-167, uniformly 15N-labeled).
T3 construct: zymogen granule protein 16 (ZG16p), human, residues 21-167; the same paragraph also calls the 15N-labeled protein ZG16p(21–159); also called zymogen granule protein 16; 15N-labeled ZG16p; source: E. coli, pCold-PDI vector, 15N-labeled Spectra 9 medium, purified (Ni-Sepharose, size exclusion chromatography)
T3 sequence (looked up): T1 sequence (O60844 21-167)
The experiment in a line: NMR titration; 1H-15N HSQC of 0.1–0.15 mM 15N-labeled ZG16p with increasing amounts of ligand; 298 K; PBS, pH 6.5, 10% D2O; Kd fitted from chemical shift changes (n = 3). Conditions: both partners purified.

The mark [5] stands for this setting: PBS pH 6.5, 10% D2O, 298 K, mannose-binding pocket.

Turning to `OC[C@H]1O[C@@H](O[C@H]2[C@H](O)[C@@H](CO)OC(O)[C@@H]2O)[C@H](O)[C@@H](O)[C@@H]1O` (stereo partly shown) [Glcβ1–3Glc], the Kd in experiment [1] (setting [5]) is 7 ± 4 mM.

On to `C[C@@H](O[C@H]1O[C@H](CO)[C@@H](O)[C@H](O)[C@@H]1O)[C@H](N)C(=O)O` [Man-O-Thr], for which the “X-ray crystallography, soaking, 2.7 Å” value on human ZG16p(21–159) [2] is “structures of human ZG16p in complex with Man-O-Ser and Man-O-Thr were determined”. Besides, in experiment [1], binding was put at a Kd of 19 ± 11 mM.

As to `N[C@@H](CO[C@H]1O[C@H](CO)[C@@H](O)[C@H](O)[C@@H]1O)C(=O)O` [Man-O-Ser], on human ZG16p(21–159) [3], the “X-ray crystallography, soaking, 2.1 Å” value was “structures of human ZG16p in complex with Man-O-Ser and Man-O-Thr were determined”.

In turn, Heparin tetrasaccharide showed a Kd in experiment [1] (PBS pH 6.5, 10% D2O, 298 K, heparin site on flat surface adjacent to the mannose pocket) of 2 ± 1 mM.

For `OC[C@H]1O[C@H](O[C@H]2[C@H](O)[C@@H](CO)OC(O)[C@H]2O)[C@@H](O)[C@@H](O)[C@@H]1O` (stereo partly shown) [Manα1–3Man], binding in experiment [1] (setting [5]) was put at a Kd of 13 ± 7 mM.

B1: Man-α-O-heptapeptide Val-Glu-Pro-(Man-α-O-Thr)-Ala-Val-Ala (peptide)
peptide: VEPT(αMan)AVA
notes: Glycopeptide; also called Man-O-peptide; source: synthetic peptide (solid phase, Fmoc; HPLC and Sephadex G-15)
Regarding B1, the dissociation constant Kd in experiment [4] stood at 3 mM.
